# Reference: patent US20230083973A1, “SUBSTITUTED CYCLOPROPYL-2,2'-BIP[…], ANALOGUES THEREOF, AND METHODS USING SAME” (priority 2019, published 2023)
# pEC50: −log10 of the molar value.
# Tested on: HBsAg
# Experiment: HBsAg assay: inhibition of HBsAg in HepG2.2.15 cells (chemiluminescence immunoassay of supernatant)
# Assay type: cell-based, hepatitis B virus
# Conditions: Hepatitis B virus, HepG2.2.15, 144 h, read-out: sAg EC50, HepG2.2.15 cells; HBsAg in supernatant at day 6 after exposure to compound; 0.5% DMSO
# Procedure, shortened: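 Secreted HBsAg quantified by CLIA in day-6 supernatants of HepG2.2.15 cultures given compound dilutions at 0.5% final DMSO, with one compound/medium replenishment after 2–3 days. Dose-response fits gave EC50 (50% inhibition); viability checked separately by CellTiter-Glo.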
row,SMILES,pEC50
1,"Cc1nc2c(F)cc([C@@H]3C[C@H]3c3cnc(-c4ncccn4)nc3)cc2s1 (relative stereo) [Example 272, trans-6-(2-([2,2′-Bipyrimidin]-5-yl)cyclopropyl)-4-fluoro-2-methylbenzo[d]thiazole]",7.14
2,"COc1cc([C@@H]2C[C@H]2c2cnc(-c3ncccc3F)nc2)cc(F)c1F (relative stereo) [Example 179, trans-5-(2-(3,4-Difluoro-5-methoxyphenyl)cyclopropyl)-2-(3-fluoropyridin-2-yl)pyrimidine]",6.43
3,"COc1ccc(C2CN(c3cc([C@@H]4C[C@H]4c4cnc(-c5ncccn5)nc4)cc(F)c3F)C2)cc1OC (relative stereo) [Example 216, trans-5-(2-(3-(3-(3,4-Dimethoxyphenyl)azetidin-1-yl)-4,5-difluorophenyl)cyclopropyl)-2,2′-bipyrimidine]",7.60
4,"c1cnc(-c2ncc([C@@H]3C[C@H]3c3cccc4ncccc34)cn2)nc1 (relative stereo) [Example 171, trans-5-(2-([2,2′-Bipyrimidin]-5-yl)cyclopropyl)quinoline]",6.42
5,"COc1cc([C@@H]2C[C@H]2c2cnc(-c3cnccn3)nc2)cc(F)c1F (relative stereo) [Example 178, trans-5-(2-(3,4-Difluoro-5-methoxyphenyl)cyclopropyl)-2-(pyrazin-2-yl)pyrimidine]",6.34
6,"COc1c(Cl)ccc(C2CC2c2cnc(-c3ncccn3)nc2)c1Cl (single isomer, unassigned) [Example 132, trans-5-(2-(2,4-Dichloro-3-methoxyphenyl)cyclopropyl)-2,2′-bipyrimidine]",6.92

# Same assay, conditions: read-out: sAg EC50; HepG2.2.15 cells; HBsAg in supernatant at day 6 after exposure to compound; 0.5% DMSO
row,SMILES,pEC50
1,"COc1cc(C2CC2c2cnc(-c3ncccn3)nc2C(C)C)ccc1F (single isomer, unassigned) [Example 75, trans-5-(2-(4-Fluoro-3-methoxyphenyl)cyclopropyl)-4-isopropyl-2,2′-bipyrimidine]",5.70
2,"COc1c(Cl)ccc(C2CC2c2cnc(-c3ncccn3)nc2)c1C (single isomer, unassigned) [Example 71, trans-5-(2-(4-Chloro-3-methoxy-2-methylphenyl)cyclopropyl)-2,2′-bipyrimidine]",6.70
3,"CCc1nc(-c2ncccn2)ncc1C1CC1c1ccc(F)c(OC)c1 (single isomer, unassigned) [Example 76, trans-4-Ethyl-5-(2-(4-fluoro-3-methoxyphenyl)cyclopropyl)-2,2′-bipyrimidine]",5.70
4,"COc1cc(C2CC2c2cnc(-c3ncccn3)nc2C)ccc1F (single isomer, unassigned) [Example 18, trans-5-(2-(4-Fluoro-3-methoxyphenyl)cyclopropyl)-4-methyl-2,2′-bipyrimidine]",6.05
5,"Oc1cnn(-c2cc(C3CC3c3cnc(-c4ncccn4)nc3)cc(F)c2F)c1 (single isomer, unassigned) [Example 259, trans-1-(5-(2-([2,2′-Bipyrimidin]-5-yl)cyclopropyl)-2,3-difluorophenyl)-1H-pyrazol-4-ol]",5.70
6,"Fc1cc(C2CC2c2cnc(-c3ncccn3)nc2)cc(O[C@H]2CCOC2)c1F (single isomer, unassigned) [Example 249]",6.10
7,"COc1cc(C2CC2c2ccc(-c3ncccn3)nn2)ccc1F (single isomer, unassigned) [Example 192, trans-3-(2-(4-Fluoro-3-methoxyphenyl)cyclopropyl)-6-(pyrimidin-2-yl)pyridazine]",4.31
8,"COc1c(Cl)ccc(C2CC2c2cnc(-c3ncccn3)nc2)c1F (single isomer, unassigned) [Example 55, trans-5-(2-(4-Chloro-2-fluoro-3-methoxyphenyl)cyclopropyl)-2,2′-bipyrimidine]",6.00
9,"COc1c(Cl)ccc(C2CC2c2cnc(-c3ncccn3)nc2)c1C (single isomer, unassigned) [Example 72, trans-5-(2-(4-Chloro-3-methoxy-2-methylphenyl)cyclopropyl)-2,2′-bipyrimidine]",7.05
10,"Cc1cc(C2CC2c2cnc(-c3ncccn3)nc2)cc(OCC2CC2)c1Cl (single isomer, unassigned) [Example 50, trans-5-((2-(4-Chloro-3-(cyclopropylmethoxy)-5-methylphenyl)cyclopropyl)-2,2′-bipyrimidine]",5.70
11,"CO[C@@H]1CCN(c2cc(C3CC3c3cnc(-c4ncccn4)nc3)cc(F)c2F)C1 (single isomer, unassigned) [Example 96]",7.03
12,"COCCCOc1cc(F)c(Cl)cc1C1CC1c1cnc(-c2ncccn2)nc1 (single isomer, unassigned) [Example 154, trans-5-(2-(5-Chloro-4-fluoro-2-(3-methoxypropoxy)phenyl)cyclopropyl)-2,2′-bipyrimidine]",6.52
13,"Fc1ccc(C2CC2c2cnc(-c3ncccn3)nc2)cc1OCC1CC1 (single isomer, unassigned) [Example 26, trans-5-(2-(3-(Cyclopropylmethoxy)-4-fluorophenyl)cyclopropyl)-2,2′-bipyrimidine]",7.54
14,"Fc1cc(C2CC2c2cnc(-c3ncccn3)nc2)cc(OC2CCCC2)c1F (single isomer, unassigned) [Example 246, trans-5-(2-(3-(Cyclopentyloxy)-4,5-difluorophenyl)cyclopropyl)-2,2′-bipyrimidine]",6.82
15,"COC1CN(c2cc([C@@H]3C[C@H]3c3cnc(-c4ncccn4)nc3)cc(F)c2F)C1 (single isomer, unassigned) [Example 123, trans-5-(2-(3,4-Difluoro-5-(3-methoxyazetidin-1-yl)phenyl)cyclopropyl)-2,2′-bipyrimidine]",7.92
16,"COc1cc(C2CC2c2cnc(-c3ncccn3)nc2)cc(OC)c1Cl (single isomer, unassigned) [Example 99, trans-5-(2-(4-Chloro-3,5-dimethoxyphenyl)cyclopropyl)-2,2′-bipyrimidine]",5.52
